Patent US20240182423A1, “4-AMINOQUINOLINES FOR TREATMENT OF MULTIDRUG RESISTANT MALARIA” (United States Government as represented by the Department …, priority 2022, published 2024)
Where two headings read alike, the source gives them in different places.

What was measured:
[1] = tested on: drug sensitive D6 clone of P. falciparum; assay: SYBR Green I fluorescence-based antiplasmodial assay, D6; assay type: cell-based, Plasmodium falciparum; conditions: P. falciparum D6, 72 hours
Protocol: (§1) Laboratory strains of P. falciparum were cultured in human erythrocytes by standard methods (Trager, W.; Jensen, J. B. Human malaria parasites in continuous culture. Science 1976, 193 (4254), 673-675. DOI: 10.1126/science.781840 from NLM Medline). The parasites were grown in culture medium with fresh human erythrocytes maintained at 2% hematocrit at 37° C. in low-oxygen conditions (5% 02, 5% CO2, 90% N2). The culture medium used was RPMI-1640 with 25 mg/L gentamicin sulfate, 45 mg/L Albumax II, 10 mM glucose, and 25 mM HEPES buffer (Smilkstein et al., Simple and inexpensive fluorescence-based technique for high-throughput antimalarial drug screening. Antimicrob Agents Chemother 2004, 48 (5), 1803-1806. DOI: 10.1128/aac.48.5.1803-1806.2004). Cultures were maintained at less than 10% parasitemia by transfer of infected cells to fresh erythrocytes and culture medium every 3 or 4 days. […]
(§2) In vitro antimalarial activity was measured using the SYBR Green I fluorescence-based assay. […] Experiments were set up in quadruplicate in 96-well plates with a 100 μL total volume per well with 2% hematocrit, 0.2% parasitemia, and drug dilutions between 0.25 and 250 nM in complete culture medium described above. The plates were incubated at 37° C. in low-oxygen conditions described previously for 72 hours, at which point 100 μL of fluorescent dye-detergent mixture (0.2 μL SYBR Green I: 1 mL lysing buffer) was added and the plates incubated in the dark at room temperature for one hour. After incubation with the fluorescent dye, a 96-well plate reader with excitation wavelength set at 497 nm and emission at 520 nm, was used to measure fluorescence of each well.
(§3) Each of the ADC derivatives was tested for antiplasmodial activity against the drug sensitive D6 clone of P. falciparum as well as one or more of the following multidrug resistant strains: Dd2 or 7G8. The method used for antiplasmodial testing is known as the SyBr Green assay and it was described by us in 2004 (Smilkstein et al., Antimicrob Agents Chemother 2004, 48 (5), 1803-1806).

[2] = tested on: multi-drug resistant (Dd2) P. falciparum; assay: SYBR Green I fluorescence-based antiplasmodial assay, Dd2; assay type: cell-based, Plasmodium falciparum; conditions: for IC50: P. falciparum Dd2, 72 hours; for cross resistance, Dd2 vs D6: ratio of IC50 in Dd2 and D6 strains
Protocol: as §1, §2, §3

[3] = Metabolic stability in pooled murine liver microsomes; assay type: in vitro ADME; conditions: for half-life: mouse
Protocol: (§4) In vivo efficiency: ADCs antiplasmodial efficiency (ED50, ED90) assessed in murine malaria model against P. yoelii (Py). Metabolic stability: ADCs were assessed for metabolic stability (t1/2, Clint) in pooled murine liver microsomes. Referring to Table 1, ND=not detected.

[4] = HepG2 cytotoxicity assay (resazurin); assay type: cell-based; conditions: human, HepG2, 24 h drug then 24 h drug-free, read-out: CC50 v HepG2
Protocol: Final compounds were assessed for mammalian cytotoxicity using an immortalized human liver carcinoma cell line (HepG2) using previously described methods.^1 In short, final compounds were prepared in DMSO as 10 mM stock solutions. […] To 96-well flat-bottomed tissue culture plates, HepG2 cells were added at 2×10 4 density with an additional 160 μL of complete culture media per well and were incubated overnight at 37° C. to allow for adherence. Compound stocks aliquots were applied as 40 μL solutions in complete media to each well in a serial dilution series that ranged from […] as duplicates. A 10 mM DMSO stock of mefloquine was used as a positive control. […] 20 μL of resazurin (Alamar Blue) in PBS buffer was added to each well to a final concentration of 10 μM, and the plates were incubated for 3 h. Fluorescence was measured at 560 nm excitation and 590 nm emission bands using a Spectramax iD3 plate reader. Fluorescence output values were normalized to the untreated control wells and plotted against the logarithm of drug concentration.

Plasmodium yoelii = assay: In vivo efficacy against murine malaria, modified 4-day test; conditions: for ED50 (mg/kg/d) vs Py / ED90 (mg/kg/d) vs Py: P. yoelii in mice, oral once daily for 4 days, PEG-400
Protocol: as §4
Selected ADC derivatives were also tested in vivo in mice using the standard 4-day test protocol as described previously. For this work the rodent malaria parasite Plasmodium yoelii was used and the mice were CF1 female. Briefly, animals were inoculated with 35,000 parasitized red blood cells (obtained from a donor animal) on Day 0 of the experiment. Beginning on the next day (Day 1) and again on the 3 succeeding days (Days 2, 3, and 4) the animals received oral doses of the test agent dissolved in the dosing vehicle PEG-400. On Day 5 a blood sample was taken from the tail vein and examined microscopically for the presence of parasites using Giemsa stained and methanol fixed blood smears.
The in vivo efficacy of selected ADC derivatives was determined against blood-stage Plasmodium yoelii using a modified 4-day test. Female mice (Charles River Laboratories) were infected intravenously with 35,000 P. yoelii parasitized erythrocytes from a donor animal (Kenya MR4 MRA-428). […] Five days after inoculation, percent parasitemia was calculated by examination of Giemsa-stained blood smears.

[5] = Pharmacokinetic study in mice; assay type: in vivo
[6] = Plasmodium falciparum, D6, 72 h
[7] = Plasmodium falciparum, DD2, 72 h
[8] = mouse, plasma, PO 5 mg/kg in PEG400, male CD1 mice
[9] = mouse, plasma, PO 5 mg/kg in PEG400, male CD1 mice, non-compartmental

Row | SMILES | IC50 [1, 6] [nM] | IC50 [2, 7] [nM] | CIint [3] [mL/min/kg] | half-life [3] [min] | CC50 at 24 h ([4]; HepG2 cells) [nM] | also measured
1 | Clc1ccc2c(Nc3ccc(N4CCN(Cc5ccccc5)CC4)cc3)ccnc2c1 [ADC-008, N-(4-(4-benzylpiperazin-1-yl)phenyl)-7-chloroquinolin-4-amine] | 16.1 | 15.9 | 391.9 | 13.9 | > 200000 | cross resistance, Dd2 vs D6 [2]: Equipotency
2 | CCN1CCN(c2ccc(Nc3ccnc4cc(Cl)ccc34)cc2)CC1 [ADC-009, 7-chloro-N-(4-(4-ethylpiperazin-1-yl)phenyl)quinolin-4-amine] | ~13 | ~13 | 2936 | 1.86 | > 200000 | IC50 [1]: 13.2 nM; IC50 [2]: 12.7 nM; ED50 (mg/kg/d) vs Py (Plasmodium yoelii): 1.5 mg/kg/day; ED90 (mg/kg/d) vs Py (Plasmodium yoelii): 8.4 mg/kg/day
3 | CN1CCN(c2ccc(Nc3ccnc4cc(Cl)ccc34)cc2)CC1 [ADC-010, 7-chloro-N-(4-(4-methylpiperazin-1-yl)phenyl)quinolin-4-amine] | 13.3 | 14 | 3784 | 1.44 | 185000 | cross resistance, Dd2 vs D6 [2]: Equipotency
4 | Clc1ccc2c(Nc3ccc(N4CCNCC4)cc3)ccnc2c1 [ADC-011, 7-chloro-N-(4-(piperazin-1-yl)phenyl)quinolin-4-amine] | 21.8 | 65.8 | – | – | 54000 | –
5 | CC(C)(C)OC(=O)N1CCN(c2ccc(Nc3ccnc4cc(Cl)ccc34)cc2)CC1 [ADC-012, tert-butyl 4-(4-((7-chloroquinolin-4-yl)amino)phenyl)piperazine-1-carboxylate] | – | – | – | – | > 200000 | –
6 | Clc1ccc2c(Nc3ccc(N4CCN(C5CC5)CC4)cc3)ccnc2c1 [ADC-013, 7-chloro-N-(4-(4-cyclopropylpiperazin-1-yl)phenyl)quinolin-4-amine] | 39.2 | 84.4 | – | – | > 200000 | –
7 | CCN1CCN(c2ccc(Nc3ccnc4ccc(Cl)cc34)cc2)CC1 [ADC-014, 6-chloro-N-(4-(4-ethylpiperazin-1-yl)phenyl)quinolin-4-amine] | 69.8 | 66 | – | – | > 200000 | cross resistance, Dd2 vs D6 [2]: Equipotency
8 | Clc1ccc2c(Nc3ccc(C4CCNCC4)cc3)ccnc2c1 [ADC-015, 7-chloro-N-(4-(piperidin-4-yl)phenyl)quinolin-4-amine] | 10.2 | 75.2 | – | – | 58000 | –
9 | CC(C)(C)N1CCN(c2ccc(Nc3ccnc4cc(Cl)ccc34)cc2)CC1 [ADC-017, N-(4-(4-(tert-butyl)piperazin-1-yl)phenyl)-7-chloroquinolin-4-amine] | 5.18 | 9.17 | 0.00 | – | > 200000 | ED50 (mg/kg/d) vs Py (Plasmodium yoelii): 4.0 mg/kg/day; ED90 (mg/kg/d) vs Py (Plasmodium yoelii): 7.6 mg/kg/day; T1/2 (min) [3]: ∞
10 | FC(F)(F)c1ccc(N2CCN(c3ccc(Nc4ccnc5cc(Cl)ccc45)cc3)CC2)cc1 [ADC-018, 7-chloro-N-(4-(4-(4-(trifluoromethyl)phenyl)piperazin-1-yl)phenyl)quinolin-4-amine] | 43.3 | 110 | – | – | > 200000 | –
11 | CCN1CCC(c2ccc(Nc3ccnc4cc(Cl)ccc34)cc2)CC1 [ADC-020, 7-chloro-N-(4-(1-ethylpiperidin-4-yl)phenyl)quinolin-4-amine] | 4.56 | 13.4 | 496.7 | 11 | 111000 | ED50 (mg/kg/d) vs Py (Plasmodium yoelii): 1.8 mg/kg/day; ED90 (mg/kg/d) vs Py (Plasmodium yoelii): 13.4 mg/kg/day
12 | CC(C)N1CCC(c2ccc(Nc3ccnc4cc(Cl)ccc34)cc2)CC1 [ADC-021, 7-chloro-N-(4-(1-isopropylpiperidin-4-yl)phenyl)quinolin-4-amine] | 4.94 | 11.6 | 123.6 | 44.1 | > 200000 | ED50 (mg/kg/d) vs Py (Plasmodium yoelii): 1.1 mg/kg/day; ED90 (mg/kg/d) vs Py (Plasmodium yoelii): 4.1 mg/kg/day; ED50 (Plasmodium yoelii; P. yoelii, CF1 female mice, 4-day test, oral in PEG-400): 1.1 mg/kg/day
13 | CCN1CCN(c2ccc(Nc3ccnc4cc(C(F)(F)F)ccc34)cc2)CC1 [ADC-024, N-(4-(4-ethylpiperazin-1-yl)phenyl)-7-(trifluoromethyl)quinolin-4-amine] | – | – | – | – | > 200000 | –
14 | CCN1CCN(c2ccc(Nc3ccnc4cc(Br)ccc34)cc2)CC1 [ADC-025, 7-bromo-N-(4-(4-ethylpiperazin-1-yl)phenyl)quinolin-4-amine] | 10.3 | 19.2 | – | – | 48000 | –
15 | CCCN1CCC(c2ccc(Nc3ccnc4cc(Cl)ccc34)cc2)CC1 [ADC-026, 7-chloro-N-(4-(1-propylpiperidin-4-yl)phenyl)quinolin-4-amine] | 9.25 | 19.3 | 78.0 | 70 | > 200000 | –
16 | CCCCN1CCC(c2ccc(Nc3ccnc4cc(Cl)ccc34)cc2)CC1 [ADC-027, N-(4-(1-butylpiperidin-4-yl)phenyl)-7-chloroquinolin-4-amine] | 9.03 | 20.4 | 129.7 | 42.1 | > 200000 | –
17 | CC(C)CN1CCC(c2ccc(Nc3ccnc4cc(Cl)ccc34)cc2)CC1 [ADC-028, 7-chloro-N-(4-(1-isobutylpiperidin-4-yl)phenyl)quinolin-4-amine] | 7.9 | 17.4 | – | – | – | CC50 at 24 h [4]: > 200000 nM; MRTIast ([5]; PO 5 mg/kg in PEG400, male CD1 mice): 1160 min; AUC(0-inf) [5, 8]: 3160 ng·h/mL; AUC(0-t) [5, 8]: 2360 ng·h/mL; MRT inf [5, 8]: 35.6 h; Cmax [5, 9]: 67.7 ng/mL; Tmax [5, 9]: 60 min; half-life ([5]; mouse, plasma, PO 5 mg/kg, male CD1 mice, Rsq_adjusted 0.829 (<0.9: might not be accurately estimated)): 1510 min
18 | CCC(C)N1CCC(c2ccc(Nc3ccnc4cc(Cl)ccc34)cc2)CC1 (stereo not shown) [ADC-029, N-(4-(1-(sec-butyl)piperidin-4-yl)phenyl)-7-chloroquinolin-4-amine] | 13.8 | 19 | 98.3 | 55.5 | > 200000 | –
19 | CC(C)CN1CCN(c2ccc(Nc3ccnc4cc(Cl)ccc34)cc2)CC1 [ADC-030, 7-chloro-N-(4-(4-isobutylpiperazin-1-yl)phenyl)quinolin-4-amine] | 9.79 | 17.8 | 391.9 | 13.9 | > 200000 | –
